KLS-positive rate, Viable cell count and mCherry-positive rate data for seven compounds are collected here from patent US20230094952A1, “Method for Culturing Hematopoietic Stem Cells” (Sumitomo Pharma Co., Ltd., priority 2019, published 2023).

The test system of the test is mouse long-term hematopoietic stem cells. The test can be described thus: Reproducibility and concentration dependence test: 1-week culture of sorted Hoxb5-tri-mCherry mouse long-term hematopoietic stem cells, flow cytometry. The format is cell-based. The settings on record: Table 4, day 7 of culture, n=2. Summed up: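 Hoxb5-tri-mCherry+ LT-HSCs (Lin−c-Kit+Sca-1+Flk2−CD34−/lo CD150+) were sorted from mouse bone marrow at 10 cells/well into StemSpan SFEM with SCF and TPO. Cells were cultured with compound for 1 week at 37°C, 5% CO2. Flow cytometry then measured KLS and mCherry+ fractions and cell counts.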
(In general: A flow cytometer gives signals particle by particle.)

Structures are written as SMILES.

For the compound `C[C@H]1[C@@H](c2ccccc2)O[C@@H]2O[C@@]3(C)CC[C@H]4[C@H](C)CC[C@@H]1[C@@]24OO3` [Example 1-2, (3R,5aS,6R,8aS,9R,10S,12R,12aR)-3,6,9-Trimethyl-10-phenyldecahydro-12H-3,12-epoxypyrano[4,3-j][1,2]benzodioxepine], the KLS-positive rate (compound 0.1 μM) amounted to 16.0%; the KLS-positive rate (compound 0.3 μM) worked out at 50.0%; the KLS-positive rate (compound 1 μM) was determined as 0.0%; the KLS-positive rate (compound 3 μM) is 0.0%; the KLS-positive rate (compound 10 μM) is given as 0.0%. For the same compound, the Viable cell count came to 340.5 cell (compound 0.1 μM); 0.5 cell (compound 0.3 μM); 0.5 cell (compound 1 μM); 0.5 cell (compound 3 μM); 0.0 cell (compound 10 μM). Further, the mCherry-positive rate runs as follows: (compound 0.1 μM) 59.9%; (compound 0.3 μM) 50.0%; (compound 1 μM) 0.0%; (compound 3 μM) 50.0%; (compound 10 μM) 0.0%.
As to `C[C@H]1[C@@H](OC2CCCCC2)O[C@@H]2O[C@@]3(C)CC[C@H]4[C@H](C)CC[C@@H]1[C@@]24OO3` [Example 1-20, (3R,5aS,6R,8aS,9R,10S,12R,12aR)-10-(cyclohexyloxy)-3,6,9-trimethyldecahydro-12H-3,12-epoxypyrano[4,3-j][1,2]benzodioxepine], the KLS-positive rate runs as follows: (compound 0.1 μM) 0.0%; (compound 0.3 μM) 0.0%; (compound 1 μM) 0.0%; (compound 3 μM) 0.0%; (compound 10 μM) 0.0%. Further, the Viable cell count was determined as 0.0 cell (compound 0.1 μM); 0.0 cell (compound 0.3 μM); 1.0 cell (compound 1 μM); 0.5 cell (compound 3 μM); 0.5 cell (compound 10 μM). Also, the mCherry-positive rate (compound 0.1 μM) is recorded as 0.0%; the mCherry-positive rate (compound 0.3 μM) is 0.0%; the mCherry-positive rate (compound 1 μM) is 0.0%; the mCherry-positive rate (compound 3 μM) came to 50.0%; the mCherry-positive rate (compound 10 μM) came out at 50.0%.
`C[C@H]1[C@@H](F)O[C@@H]2O[C@@]3(C)CC[C@H]4[C@H](C)CC[C@@H]1[C@@]24OO3` [Example 1-1, (3R,5aS,6R,8aS,9R,10R,12S,12aR)-10-Fluoro-3,6,9-trimethyldecahydro-12H-3,12-epoxypyrano[4,3-j][1,2]benzodioxepine] showed a KLS-positive rate (compound 0.1 μM) of 46.5%; a KLS-positive rate (compound 0.3 μM) of 0.0%; a KLS-positive rate (compound 1 μM) of 0.0%; a KLS-positive rate (compound 3 μM) of 0.0%; a KLS-positive rate (compound 10 μM) of 0.0%. Moreover, the Viable cell count by setting is: (compound 0.1 μM) 477.0 cell; (compound 0.3 μM) 0.0 cell; (compound 1 μM) 0.5 cell; (compound 3 μM) 0.0 cell; (compound 10 μM) 0.0 cell. The mCherry-positive rate stood at 0.5% (compound 0.1 μM); 0.0% (compound 0.3 μM); 50.0% (compound 1 μM); 0.0% (compound 3 μM); 0.0% (compound 10 μM).
For `CS[C@H]1O[C@@H]2O[C@@]3(C)CC[C@H]4[C@H](C)CC[C@@H]([C@H]1C)[C@@]24OO3` [Example 1-4, (3R,5aS,6R,8aS,9R,10R,12S,12aR)-3,6,9-trimethyl-10-(methylsulfanyl)decahydro-12H-3,12-epoxypyrano[4,3-j][1,2]benzodioxepine], the KLS-positive rate runs as follows: (compound 0.1 μM) 17.2%; (compound 0.3 μM) 37.9%; (compound 1 μM) 31.1%; (compound 3 μM) 30.7%; (compound 10 μM) 61.4%. This compound also came in with a Viable cell count (compound 0.1 μM) of 353.0 cell; a Viable cell count (compound 0.3 μM) of 103.0 cell; a Viable cell count (compound 1 μM) of 181.5 cell; a Viable cell count (compound 3 μM) of 87.5 cell; a Viable cell count (compound 10 μM) of 7.5 cell. The mCherry-positive rate is listed as 8.0% (compound 0.1 μM); 44.7% (compound 0.3 μM); 85.2% (compound 1 μM); 100.0% (compound 3 μM); 90.9% (compound 10 μM).
Consider `C[C@H]1[C@H](S(C)(=O)=O)O[C@@H]2O[C@@]3(C)CC[C@H]4[C@H](C)CC[C@@H]1[C@@]24OO3` [Example 1-5, (3R,5aS,6R,8aS,9R,10S,12S,12aR)-10-(Methanesulfonyl)-3,6,9-trimethyldecahydro-12H-3,12-epoxypyrano[4,3-j][1,2]benzodioxepine], for which the KLS-positive rate was found to be 18.2% (compound 0.1 μM); 41.7% (compound 0.3 μM); 20.0% (compound 1 μM); 30.8% (compound 3 μM); 0.0% (compound 10 μM). Also, the Viable cell count (compound 0.1 μM) is given as 443.5 cell; the Viable cell count (compound 0.3 μM) was found to be 221.5 cell; the Viable cell count (compound 1 μM) was determined as 308.0 cell; the Viable cell count (compound 3 μM) was 184.0 cell; the Viable cell count (compound 10 μM) came to 1.5 cell. Besides, the mCherry-positive rate runs as follows: (compound 0.1 μM) 11.5%; (compound 0.3 μM) 8.5%; (compound 1 μM) 4.5%; (compound 3 μM) 41.5%; (compound 10 μM) 0.0%.
As to `CS[C@@H]1O[C@@H]2O[C@@]3(C)CC[C@H]4[C@H](C)CC[C@@H]([C@H]1C)[C@@]24OO3` [Example 1-3, (3R,5aS,6R,8aS,9R,10S,12S,12aR)-3,6,9-Trimethyl-10-(methylsulfanyl)decahydro-12H-3,12-epoxypyrano[4,3-j][1,2]benzodioxepine], the KLS-positive rate (compound 0.1 μM) was 15.8%; the KLS-positive rate (compound 0.3 μM) was found to be 18.6%; the KLS-positive rate (compound 1 μM) worked out at 20.3%; the KLS-positive rate (compound 3 μM) amounted to 24.2%; the KLS-positive rate (compound 10 μM) was determined as 83.4%. Besides, the Viable cell count (compound 0.1 μM) is 445.0 cell; the Viable cell count (compound 0.3 μM) came out at 324.0 cell; the Viable cell count (compound 1 μM) is 299.5 cell; the Viable cell count (compound 3 μM) is 139.0 cell; the Viable cell count (compound 10 μM) is listed as 3.5 cell. Besides, the mCherry-positive rate (compound 0.1 μM) is given as 8.0%; the mCherry-positive rate (compound 0.3 μM) is recorded as 4.7%; the mCherry-positive rate (compound 1 μM) is 38.6%; the mCherry-positive rate (compound 3 μM) is 97.0%; the mCherry-positive rate (compound 10 μM) was determined as 100.0%.
`C[C@@H]1CC[C@H]2[C@@H](C)C(=O)O[C@@H]3O[C@@]4(C)CC[C@@H]1[C@]32O4` [Example 1-34, (3R,3aS,6R,6aS,9S,10aS,10bR)-3,6,9-Trimethyloctahydro-10aH-9,10b-epoxypyrano[4,3,2-jk][2]benzoxepin-2(3H)-one] showed a KLS-positive rate (compound 0.1 μM) of 77.3%; a KLS-positive rate (compound 0.3 μM) of 28.4%; a KLS-positive rate (compound 1 μM) of 21.8%; a KLS-positive rate (compound 3 μM) of 27.7%; a KLS-positive rate (compound 10 μM) of 27.5%. Moreover, the Viable cell count was found to be 136.5 cell (compound 0.1 μM); 389.0 cell (compound 0.3 μM); 713.5 cell (compound 1 μM); 268.0 cell (compound 3 μM); 70.0 cell (compound 10 μM). The mCherry-positive rate is, setting by setting: (compound 0.1 μM) 11.7%; (compound 0.3 μM) 18.3%; (compound 1 μM) 15.2%; (compound 3 μM) 14.6%; (compound 10 μM) 0.4%.
